The subject of assay [1] is Escherichia coli. The assay can be described thus: Antimicrobial activity against Escherichia coli UB1005 after 24 hrs by twofold serial microbroth dilution assay. The conditions noted are these: UB1005, 24 h. (Broth dilution looks for growth in wells or tubes with falling amounts of substance.)
The test system of assay [2] is Pseudomonas aeruginosa. The assay can be described thus: Antimicrobial activity against Pseudomonas aeruginosa Z61 after 24 hrs by twofold serial microbroth dilution assay. In kind it is functional.
The test system of assay [3] is Pseudomonas aeruginosa. As to the kind of experiment: Antimicrobial activity against Pseudomonas aeruginosa K799 after 24 hrs by twofold serial microbroth dilution assay. In kind it is functional.
For assay [4], the system named is Staphylococcus aureus. The assay can be described thus: Antimicrobial activity against Staphylococcus aureus RN4220 after 24 hrs by twofold serial microbroth dilution assay. In kind it is functional.
For assay [5], the system named is Staphylococcus aureus. The assay can be described thus: Antimicrobial activity against Staphylococcus aureus SAP00017 after 24 hrs by twofold serial microbroth dilution assay. It is filed as functional.
The subject of assay [6] is Bacillus subtilis. As to the kind of experiment: Antimicrobial activity against Bacillus subtilis Vernon after 24 hrs by twofold serial microbroth dilution assay. It is filed as functional.
Assay [7] has as its system Candida albicans. As to the kind of experiment: Antimicrobial activity against Candida albicans CAND105 after 48 hrs by twofold serial microbroth dilution assay. It is filed as functional.
Assay [8] relates to Escherichia coli. As to the kind of experiment: Antimicrobial activity against Escherichia coli DC2 after 24 hrs by twofold serial microbroth dilution assay. It is filed as functional.
For the next assay, the system named is Nannizzia gypsea. As to the kind of experiment: Antimicrobial activity against Microsporum gypseum after 48 hrs by twofold serial microbroth dilution assay. In kind it is functional.
The subject of assay [9] is Mycobacterium tuberculosis. The assay can be described thus: Antimicrobial activity against Mycobacterium tuberculosis 107 ATCC 35801 at 100 ug/disk after 4 weeks by disk diffusion method. It is filed as functional, organism-based. (In general: In agar diffusion tests the substance spreads into inoculated agar from a disc or well.)
Assay [10] concerns Candida albicans. As to the kind of experiment: Antimicrobial activity against Candida albicans after 48 hrs by twofold serial microbroth dilution assay. In kind it is functional.
Another assay relates to Aspergillus fumigatus. As to the kind of experiment: Antimicrobial activity against Aspergillus fumigatus after 48 hrs by twofold serial microbroth dilution assay. In kind it is functional.
Another assay concerns Aspergillus flavus. The assay can be described thus: Antimicrobial activity against Aspergillus flavus after 48 hrs by twofold serial microbroth dilution assay. It is filed as functional.
The subject of the next assay is Fusarium tricinctum. The assay can be described thus: Antimicrobial activity against Fusarium tricinctum after 48 hrs by twofold serial microbroth dilution assay. In kind it is functional.
Assay [11] has as its system Respiratory syncytial virus. As to the kind of experiment: Antiviral activity against Respiratory syncytial virus assessed as effect on virus-induced cytopathic effect at 200 ug/ml after 3 days. In kind it is functional, organism-based. (In general: Cytopathic effects are the visible damage that an infection or toxin causes in cultured cells.)
Another assay relates to Yarrowia lipolytica. The assay can be described thus: Antimicrobial activity against Candida lipolytica after 48 hrs by twofold serial microbroth dilution assay. It is filed as functional.
The subject of the next assay is Mycobacterium avium. The assay can be described thus: Antimicrobial activity against Mycobacterium avium 724 ATCC 25291 at 100 ug/disk after 2 weeks by disk diffusion method. In kind it is functional, organism-based.
In a further assay the test system is Human alphaherpesvirus 1. The assay can be described thus: Antiviral activity against Herpes simplex virus 1 assessed as effect on virus-induced cytopathic effect at 200 ug/ml after 3 days. In kind it is functional, organism-based.
In the next assay the test system is Saccharomyces cerevisiae. The assay can be described thus: Antimicrobial activity against Saccharomyces cerevisiae after 48 hrs by twofold serial microbroth dilution assay. It is filed as functional.
For assay [12], the system named is Bacillus subtilis. As to the kind of experiment: Antimicrobial activity against Bacillus subtilis Vernon at <=800 ug/ml after 24 hrs by twofold serial microbroth dilution assay. It is filed as functional, organism-based.
Assay [13] concerns Pseudomonas aeruginosa. As to the kind of experiment: Antimicrobial activity against Pseudomonas aeruginosa K799 at <=800 ug/ml after 24 hrs by twofold serial microbroth dilution assay. It is filed as functional, organism-based.
Assay [14] concerns Escherichia coli. The assay can be described thus: Antimicrobial activity against Escherichia coli DC2 at <=800 ug/ml after 24 hrs by twofold serial microbroth dilution assay. It is filed as functional, organism-based.
For assay [15], the system named is Staphylococcus aureus. The assay can be described thus: Antimicrobial activity against Staphylococcus aureus SAP00017 at <=800 ug/ml after 24 hrs by twofold serial microbroth dilution assay. It is filed as functional, organism-based.
In assay [16] the test system is Escherichia coli. As to the kind of experiment: Antimicrobial activity against Escherichia coli UB1005 at <=800 ug/ml after 24 hrs by twofold serial microbroth dilution assay. In kind it is functional, organism-based.
Assay [17] concerns Candida albicans. The assay can be described thus: Antimicrobial activity against Candida albicans CAND105 at <=800 ug/ml after 48 hrs by twofold serial microbroth dilution assay. In kind it is functional, organism-based.
The test system of assay [18] is Staphylococcus aureus. As to the kind of experiment: Antimicrobial activity against Staphylococcus aureus RN4220 at <=800 ug/ml after 24 hrs by twofold serial microbroth dilution assay. In kind it is functional, organism-based.
The subject of assay [19] is Pseudomonas aeruginosa. As to the kind of experiment: Antimicrobial activity against Pseudomonas aeruginosa Z61 at <=800 ug/ml after 24 hrs by twofold serial microbroth dilution assay. It is filed as functional, organism-based.

Values after ≈ are worked out from the molar mass of the structure shown. Active and inactive are the calls of the source. No cut-off for these calls is given here.

As a reminder, the MIC is the lowest concentration that inhibits growth of the organism. Lower therefore signals greater potency.

For `C[C@@H]1[C@H](O)[C@@H](C)/C=C/C=C/C=C/C=C/C=C/C=C/C=C/[C@H](O[C@@H]2O[C@H](C)[C@@H](O)[C@H](N)[C@@H]2O)C[C@@H]2O[C@](O)(C[C@@H](O)C[C@@H](O)[C@H](O)CC[C@@H](O)C[C@@H](O)CC(=O)O[C@H]1C)C[C@H](O)[C@H]2C(=O)O` [AMPHOTERICIN B], the MIC in the assay on Escherichia coli [1] was over 5 µg/mL; in the assay on Pseudomonas aeruginosa [2] it was over 5 µg/mL; in the assay with Pseudomonas aeruginosa [3], over 5 µg/mL; in the assay with Staphylococcus aureus [4] (RN4220, 24 h) it was over 5 µg/mL; with Staphylococcus aureus [5] it was over 5 µg/mL; in the assay with Bacillus subtilis [6] it was over 5 µg/mL. For the same compound, the MIC is 0.1 µg/mL (≈ 0.108 µM) in the assay with Candida albicans [7] and over 5 µg/mL against Escherichia coli [8].

As for `CC1=C(O)C(=O)c2ccc(C)cc2C1=O`, the MIC in the assay on Escherichia coli [1] is over 800 µg/mL; against Nannizzia gypsea it was 12.5 µg/mL (≈ 61.8 µM); in the assay with Candida albicans [10], 50 µg/mL (≈ 247 µM); against Aspergillus fumigatus, 50 µg/mL (≈ 247 µM); with Aspergillus flavus, 100 µg/mL (≈ 495 µM); against Pseudomonas aeruginosa [2], over 800 µg/mL. Also, the MIC in the assay on Fusarium tricinctum was 25 µg/mL (≈ 124 µM); against Pseudomonas aeruginosa [3] it was over 800 µg/mL; in the assay with Staphylococcus aureus [4] (RN4220, 24 h), 400 µg/mL (≈ 1980 µM); against Yarrowia lipolytica, 25 µg/mL (≈ 124 µM); against Staphylococcus aureus [5], 800 µg/mL (≈ 3960 µM); in the assay with Bacillus subtilis [6] it was 800 µg/mL (≈ 3960 µM). In addition, the values for the MIC in the assay with Candida albicans [7], against Escherichia coli [8] and in the assay with Saccharomyces cerevisiae were 80 µg/mL (≈ 396 µM), over 800 µg/mL and over 100 µg/mL, respectively. For the same compound, the result (in assay [9]; in assay [11]; with Mycobacterium avium; with Human alphaherpesvirus 1) was inactive.

On to NYSTATIN, for which the MIC with Nannizzia gypsea is 2.5 µg/mL; against Candida albicans [10] it was 10 µg/mL; in the assay with Aspergillus fumigatus, 5 µg/mL; in the assay with Aspergillus flavus, over 10 µg/mL; in the assay on Fusarium tricinctum, 5 µg/mL; against Yarrowia lipolytica, over 10 µg/mL. This compound also gave a minimal inhibitory concentration (MIC) against Saccharomyces cerevisiae of 10 µg/mL.

`Cc1ccc2c(O[C@@H]3O[C@@H](C)[C@H](O)[C@@H](O)[C@H]3O)c(O)c(C)c(O)c2c1`: the outcome in the assay on Bacillus subtilis [12], with Pseudomonas aeruginosa [13], in the assay with Escherichia coli [14], with Staphylococcus aureus [15], with Escherichia coli [16] and in the assay with Candida albicans [17] was inactive. Moreover, the result in the assay with Staphylococcus aureus [18] and with Pseudomonas aeruginosa [19] was inactive.

On to `COc1cccc(OC)c1C(=O)N[C@@H]1C(=O)N2[C@@H]1SC(C)(C)[C@@H]2C(=O)O` [METHICILLIN], for which the MIC against Escherichia coli [1] was over 512 µg/mL; against Pseudomonas aeruginosa [2], under 4 µg/mL; in the assay on Pseudomonas aeruginosa [3], 256 µg/mL (≈ 673 µM); against Staphylococcus aureus [4] (RN4220, 24 h), under 4 µg/mL; in the assay with Staphylococcus aureus [5], 256 µg/mL (≈ 673 µM); with Bacillus subtilis [6] it was 128 µg/mL (≈ 336 µM). The minimal inhibitory concentration (MIC) with Candida albicans [7] is over 512 µg/mL; in the assay with Escherichia coli [8], under 4 µg/mL.

For the compound `COc1ccc2c(O)cc(OC)c(O)c2c1O`, the outcome in the assay on Bacillus subtilis [12], in the assay with Pseudomonas aeruginosa [13], in the assay with Escherichia coli [14], in the assay with Staphylococcus aureus [15], in the assay on Escherichia coli [16] and in the assay with Candida albicans [17] was inactive. Moreover, the outcome in the assay with Staphylococcus aureus [18] and in the assay on Pseudomonas aeruginosa [19] was inactive.

Consider `CC1=CC(=O)c2ccc(C)cc2C1=O` [CHIMAPHILIN], for which the MIC was over 800 µg/mL against Escherichia coli [1]; 6.2 µg/mL (≈ 33.3 µM) in the assay with Nannizzia gypsea; 50 µg/mL (≈ 269 µM) against Candida albicans [10]; 50 µg/mL (≈ 269 µM) with Aspergillus fumigatus; 25 µg/mL (≈ 134 µM) against Aspergillus flavus; over 800 µg/mL against Pseudomonas aeruginosa [2]. The MIC against Fusarium tricinctum is 12.5 µg/mL (≈ 67.1 µM); against Pseudomonas aeruginosa [3], over 800 µg/mL; against Staphylococcus aureus [4] (RN4220, 24 h), 25 µg/mL (≈ 134 µM); in the assay with Yarrowia lipolytica, 50 µg/mL (≈ 269 µM); in the assay with Staphylococcus aureus [5], 25 µg/mL (≈ 134 µM); in the assay with Bacillus subtilis [6] it was 50 µg/mL (≈ 269 µM). Further, the MIC is 400 µg/mL (≈ 2150 µM) against Candida albicans [7], over 800 µg/mL with Escherichia coli [8] and 50 µg/mL (≈ 269 µM) with Saccharomyces cerevisiae. The result (in assay [9]; in [11]; in the assay with Mycobacterium avium; with Human alphaherpesvirus 1) was inactive.

`CC(=O)Oc1c(C)c(OC(C)=O)c2cc(C)ccc2c1O[C@@H]1O[C@@H](C)[C@H](OC(C)=O)[C@@H](OC(C)=O)[C@H]1OC(C)=O`: the result in the assay on Bacillus subtilis [12], in the assay with Pseudomonas aeruginosa [13], in the assay on Escherichia coli [14], with Staphylococcus aureus [15], in the assay on Escherichia coli [16] and with Candida albicans [17] was inactive. Moreover, the result in the assay on Staphylococcus aureus [18] and in the assay on Pseudomonas aeruginosa [19] was inactive.

With GENTAMICIN, the MIC is 0.3 µg/mL in the assay on Pseudomonas aeruginosa [2]; 1 µg/mL with Pseudomonas aeruginosa [3]; 0.3 µg/mL with Staphylococcus aureus [4]; over 32 µg/mL against Staphylococcus aureus [5]; 16 µg/mL in the assay with Bacillus subtilis [6]; over 32 µg/mL in the assay with Candida albicans [7]. This compound displayed an MIC in the assay with Escherichia coli [8] of 1 µg/mL.

Turning to `COc1ccc2c(OC(C)=O)cc(OC)c(OC(C)=O)c2c1OC(C)=O`, the result in the assay on Bacillus subtilis [12], with Pseudomonas aeruginosa [13], in the assay on Escherichia coli [14], in the assay with Staphylococcus aureus [15], in the assay with Escherichia coli [16] and in the assay on Candida albicans [17] was inactive. Moreover, the outcome in the assay on Staphylococcus aureus [18] and in the assay on Pseudomonas aeruginosa [19] was inactive.

For the compound `CC1=CC(=O)c2ccc(C)c(Cl)c2C1=O`, the MIC in the assay on Escherichia coli [1] is over 800 µg/mL; in the assay with Nannizzia gypsea, 3.1 µg/mL (≈ 14 µM); with Candida albicans [10], 100 µg/mL (≈ 453 µM); with Aspergillus fumigatus it was 25 µg/mL (≈ 113 µM); against Aspergillus flavus, 25 µg/mL (≈ 113 µM); against Pseudomonas aeruginosa [2], 400 µg/mL (≈ 1810 µM). Moreover, the MIC in the assay on Fusarium tricinctum was 12.5 µg/mL (≈ 56.6 µM); with Pseudomonas aeruginosa [3] it was over 800 µg/mL; with Staphylococcus aureus [4] (RN4220, 24 h), 200 µg/mL (≈ 906 µM); with Yarrowia lipolytica it was 50 µg/mL (≈ 227 µM); against Staphylococcus aureus [5], 25 µg/mL (≈ 113 µM); against Bacillus subtilis [6] it was 12.5 µg/mL (≈ 56.6 µM). In addition, the MIC in the assay with Candida albicans [7] amounted to 50 µg/mL (≈ 227 µM); in the assay on Escherichia coli [8], 800 µg/mL (≈ 3630 µM); with Saccharomyces cerevisiae, 100 µg/mL (≈ 453 µM). In addition, the outcome (in assay [9]; in [11]; in the assay with Mycobacterium avium; in the assay with Human alphaherpesvirus 1) was inactive.

(Values after ChEMBL document CHEMBL1151667, “Chlorochimaphilin: a new antibiotic from Moneses uniflora” (1996).)
